Source: patent US6384056B1, “Heterocyclic thioesters or ketones for vision and memory disorders” (GPI NIL Holdings, Inc., priority 1998, dated 2002)
Marks after values point to notes of the source that are not given here.

How the values were obtained:
[1] = test system: retinal ganglion cells and optic nerve axons; experiment: optic nerve transection: retinal ganglion cell survival, optic nerve axon preservation and myelination 90 days after transection; assay type: in vivo, rat; settings: for RGC Counts: mean density + SEM of Fluoro-gold labeled RGC in 400 μm × 400 μm gridfields; for ON Axon density: RT97 labeled axons in 200 μm × 200 μm region, mean + SEM; for Proximal optic nerve myelin basic protein Density: % areal coverage of optic nerve cross section, ± SEM; for increased ON axon density: adjusted for optic nerve diameter; for ON axon Count: calculated by multiplying axonal density by ON area; for Distal optic nerve myelin basic protein Density (myelin level): cross sectional area multiplied by myelin density
From the text: All eyes and optic nerves stumps were removed.

[2] = test system: retinal ganglion cells and optic nerve; experiment: retinal ischemia: degeneration of retinal ganglion cells, optic nerve axons and myelin; assay type: in vivo, rat
From the text: Retinal ganglion cells were retrogradely labeled in adult rats by bilateral injection of fluorogold in their lateral geniculate nuclei. Labeled ganglion cells in the normal rat retina appear as white profiles against the dark background (FIG. 1A). Complete retinal ischemia was produced by infusing normal saline solution into the retinal vitreous cavity of each eye until the intraocular pressure exceeded arterial blood pressure. 28 days after the ischemic episode extensive degeneration of retinal ganglion cell was evidenced by massive reduction in the density of fluorogold labeled cells (FIG. 1B).

retina = experiment: streptozotocin induced diabetes: retinal neovascularization and neuronal loss; assay type: in vivo; settings: 28 day treatment beginning 8 weeks after onset of streptozotocin induced diabetes
[3] = test system: retinal ganglion cell axons; experiment: protection of retinal ganglion cell axons from degeneration 14 days after optic nerve transection (RT97); assay type: in vivo; settings: ± SEM
From the text: Efficacy of represetative compounds from different immunophilin ligand series in protecting retinal ganglion cell axons from degeneration following optic nerve transection set forth in Table 9.
Efficacy of representative compounds from different immunophilin ligand series in protecting retinal ganglion cell axons from degeneration following optic nerve transection

Clearance = assay type: in vitro ADME; settings: Table 9 comments
[4] = test system: streptozotocin-induced diabetic rat; experiment: sensory neuropathy in streptozotocin-induced diabetes: hot plate and tail flick; assay type: in vivo; settings: lesioned animals treated for 6 weeks at 10 mg/kg s.c., treatment started six weeks after streptozotocin
Experimental: The procedure involved using Male Wistar rats which were given a single injection of streptozotocin (65 mg/kg i.v.). Blood glucose levels were determined weekly for the first three weeks and on the last week of the experiment. Animals were evaluated weekly for signs of sensory neuropathy using the conventional hot plate and tail flick apparatus test procedures.

aged mice = experiment: Morris watermaze spatial learning and memory in aged rodents; assay type: in vivo, mouse; settings: aged impaired C57BL/6N-Nia mice, 10 mg/kg daily, retention testing after 3 weeks of dosing
From the text: The Morris watermaze is widely used for assessing spatial memory formation and retention in experimental animals. The test depends on the animal's ability to utilize spatial visual information in order to locate a submerged escape platform in a water tank. It is important that the tank itself be as devoid of specific visual features as possible-thus, it is always circular in shape, the sides are kept smooth and in uniform dull colors, and the water is rendered opaque with nontoxic watercolor pigment or powdered milk. This is to ensure that the animal navigates only by the use of more distant visual cues, or by the use of intra-maze cues specifically provided by the experimenter. The tank is filled to a level which forces the animal to swim actively. Normal mice and rats react […] to the swimming part of the test and will climb onto, and remain on, an escape platform from which they are removed to a heated resting cage. If the platform is visible (i.e. above the surface), animals placed in the tank will quickly learn to home in on the platform and climb out onto it. […] Swim Distances (cm) were analyzed in a 7×5 ANOVA including Groups and Blocks (1-5) as factors in the analysis, treating Blocks as a repeated measure.

[5] = ONT/14 days GPI 1046, 90 days after transection
[6] = ONT/28 days GPI 1046, 90 days after transection
[7] = 28 days after 1 hour retinal ischemic episode, toluidine blue staining

Structure (SMILES): CCC(C)(C)C(=O)C(=O)N1CCC[C@H]1C(=O)OCCCc1cccnc1 [GPI 1046, 3-(3-pyridyl)-1-propyl (2s)-1-(3,3-dimethyl-1,2-dioxopentyl)-2-pyrrolidinecarboxylate]
- preservation of axons of protected neurons in the proximal stump ([1]; Example 16: 10 mg/kg/day s.c. for 28 days, 90 days after transection, RT97): preserved the axons of virtually all protected neurons
- ganglion cell population spared (perikaryal neuroprotection) ([1]; Example 16: 10 mg/kg/day s.c. for 28 days, sacrificed 90 days after transection): 25%
- protection of optic nerve axons ([1]; GPI 1046 for the first 14 days after optic nerve transection, proximal stump, 90 days): 5.3%
- RGC Counts ([1]; ONT/14 days GPI 1046, 10 mg/kg/day sc, 90 days after transection): small but not significant increase
- % RGCs Rescued [1, 5]: 5.3%
- % surviving RGCs with ON axons [1, 5]: 33.6%
- Distal optic nerve stump shrinkage (cross sectional area vs sham) [1, 5]: did not protect against shrinkage of the distal stump
- ON head area (% sham) [1, 5]: 76% sham
- Spared RGC population [1, 5]: 20,275
- ON Axon density [1, 5]: 569 ± 23
- Proximal optic nerve myelin basic protein Density ([1]; ONT/14 days GPI 1046): 1.6 ± 3.0 SEM % recovery
- increased ON axon density ([1]; ONT/14 days GPI 1046): 1.5×
- ON axon Count ([1]; ONT/14 days GPI 1046): 6820
- Distal optic nerve myelin basic protein Density (myelin level) ([1]; ONT/14 days GPI 1046): slightly increase the density of myelin
- RGC Counts ([1]; ONT/28 days GPI 1046, 10 mg/kg/day sc, 90 days after transection): 67.9 + 5.8*
- % surviving RGCs with ON axons [1, 6]: 81.4%
- Distal optic nerve stump shrinkage (cross sectional area vs sham) [1, 6]: prevented cross sectional shrinkage of the distal stump
- ON head area (% sham) [1, 6]: 95%* % sham
- Spared RGC population [1, 6]: 28,096*
- ON Axon density [1, 6]: significant increase in the density of large, and particularly medium and small caliber optic nerve axons
- Proximal optic nerve myelin basic protein Density ([1]; ONT/28 days GPI 1046): 70 ± 6.3 SEM % recovery
- increased ON axon density ([1]; ONT/28 days GPI 1046): 5.0×
- ON axon Count ([1]; ONT/28 days GPI 1046): 22,861*
- Distal optic nerve myelin basic protein Density (myelin level) ([1]; ONT/28 days GPI 1046): 99% myelin % myelin preservation
- protection of retinal ganglion cells (density of fluorogold labeled cells) ([2]; 10 mg/kg s.c. 1 hour prior to ischemic episode and 10 mg/kg/day for next four days, 28 days after ischemia): noticeable protection of a large proportion of the vulnerable ganglion cell population
- density of degenerating myelin figures [2, 7]: dramatically decreased the density of degenerating myelin figures
- protection of optic nerve axons from ischemic degeneration [2, 7]: protected the majority of optic nerve axons from degeneration
- neovascularization in the PR, ONL, OPL and INL (retina): reduced neovascularization
- neuronal loss in the ONL (retina): did not appear to protect against neuronal loss in the ONL
- loss of neurons in the INL and GCL (retina; vs streptozotocin/vehicle): appeared to decrease the loss of neurons in both the INL and GCL
- RT 97 + RGC axon density 14 days after ON transaction (36 ON axons rescued) [3]: 60.5% ±3.9 SEM
- Clearance (Clearance): 63.8 µL/min
- latency in hot plate and tail flick tests [4]: improvement in latency
- spatial memory performance (swim distance), retention testing (aged mice): significantly enhanced spatial memory performance
